Test results from patent US20080076751A1, “Azetidinone Derivatives and Methods of Use Thereof” (priority 2006, published 2008).

Legend:
Format in all cases: cell-based
[1] = target: T1, TRPV1 (VR1) (Rattus norvegicus, UniProt O35433); test: TRPV1 screening assay (FLIPR, Fluo-4 calcium), capsaicin stimulation; conditions: FLIPR, HEK293-TetOFF-TRPV1, capsaicin 50 nM final; read-out: VR1 flipr CAPSAICIN IC50
T1 construct: expressed in transfected cells; host or cells: HEK293-TetOFF, expression induced by withdrawing doxycycline
Text: (§1) • 1) Cell line: HEK293-Tet^OFF-TRPV1 • 2) Media: MEM (Invitrogen) • 3) 10% Tet-FBS (Clontech #8630-1) • 4) Fungizone (Gibe #15290-018 (100X)) • 5) Penn/Strep (Gibco #15140-122 (100X)) • 6) Geneticin (Gibco #10131-027 (100X)) • 7) Hygromycin (Clontech #8057-1) • 8) Doxycycline (Clontech #8634-1) • 9) Trypsin/EDTA (Gibco #25200-056) • 10) 100 mm cell culture plates (Falcon #3003) • 11) 96-well poly-D-lysine plates (Fisher #08-774-256) • 12) Hank's Balanced Salt Solution (HBSS) (GIBCO #14025-092) • 13) HEPES Buffer (GIBCO #15630-080) • 14) 30% BSA (Research Organics #1334A) • 15) Probenecid (Sigma P-8761) • 16) Fluo-4, AM (50 μg) (Molecular Probes F-23917) • 17) Pluronic F-127 20% (Molecular Probes P-3000). • 18) capsazepine (Sigma C-191) • 19) capsaicin (Sigma M-2028) • 20) compound plates (NUNC #442587) • 21) black pipet tips 96-well FLIPR (Robbins Scientific 1043-24-0) • 22) Additional reagents available from Fisher: methanol, DMSO, NaOH Reagent Preparation: 1) Cells: HEK293-Tet^OFF-TRPV11
(§2) • and Doxycycline 2.5 μg/mL final (from a 1000× stock in PBS) • Cells must be fed and/or split every 2-3 days (to maintain transcriptional repression with Doxycycline). • Must be split no more than 1:5 (50-75% confluency) to maintain growth and viability. • Grown on regular tissue culture plates (e.g Falcon 3003-100 mm) • Split cells via Trypsin/EDTA: incubate with trypsin at room temperature no longer than 5 minutes (HEK293 cells have a tendency to ball up if over trypsinized). • Two days prior to assay, the cells are split into 96-well plates in cell media in the absence of doxycycline at a concentration of 40,000 cells/well in a volume of 200 μL. 2) FLIPR buffer is prepared fresh:
Add 5 mL of Probenecid Solution, prepared as follows: 710 mg of probenecid (Sigma P-8761) is solubilized in 5 mL of 1N NaOH, 5 mL of above buffer is added for final volume of 10 mL. (of which 5 mL goes back into FLIPR buffer)
Combine 42 μL of dye mixture with 11 mL of FLIPR buffer/96-well plate.
Stock solution of 0.1 M capsaicin is prepared in MeOH (50 mg+1.6 mL MeOH). Store 50 μL aliquots at −80° C.
(§3) For assay: • a) Dilute stock by adding 0.8 μL into 1 mL of MeOH (final=80 uM). • b) Add 50 μL of diluted stock to 20 mL of FLIPR buffer (final=0.2 uM) • c) Agonist solution is added 150 μL/well to 96-well plate. • d) Final agonist concentration on cells will be 50 nM. […] Laser is adjusted upwards for an average signal≧10,000/well and less than 10% variability. 7) Compound addition conditions are as follows: • FLIPR setup (dual sequence parameters): • Sequence 1: • First interval 1 sec/60 counts • Second interval 6 sec/50 counts • Fluid addition=50 μL • Pipettor height 110 μL • Dispense Speed=30 μL/sec • Sequence 2: • Second interval 1 sec/60 counts • Second interval 6 sec/40 counts • Fluid addition=50 μL • Pipettor height=140 μL • Dispense Speed=50 μL/sec Data Analysis: • 1) Data from both additions is reported as Max-Min for each well

[2] = target: T1, TRPV1 (VR1); test: TRPV1 screening assay (FLIPR, Fluo-4 calcium), PMA stimulation; conditions: HEK293-TetOFF-TRPV1, PMA
Procedure: 2) FLIPR buffer is prepared fresh:
as §3

[3] = target: T2, human-SP9215 (GPR119) (Homo sapiens, UniProt Q8TDV5); test: GPR119 screening assay (LANCE cAMP, HEK 293 Human clone 3); conditions: HEK 293 Human clone 3, LANCE cAMP; read-out: GPR119 cAMP IC5O
T2 construct: expressed in transfected cells
T2 sequence (Q8TDV5 1-335): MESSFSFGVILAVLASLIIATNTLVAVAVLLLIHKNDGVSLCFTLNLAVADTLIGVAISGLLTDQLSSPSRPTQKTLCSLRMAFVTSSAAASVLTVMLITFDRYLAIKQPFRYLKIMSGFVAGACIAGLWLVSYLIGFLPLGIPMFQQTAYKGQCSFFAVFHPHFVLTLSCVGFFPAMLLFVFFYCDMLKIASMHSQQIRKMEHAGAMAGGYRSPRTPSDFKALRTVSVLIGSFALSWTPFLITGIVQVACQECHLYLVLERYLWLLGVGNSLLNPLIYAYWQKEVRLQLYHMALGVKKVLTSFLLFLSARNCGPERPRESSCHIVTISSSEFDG
Procedure: • +100 mg BSA (MP Biomedicals faction V, #103703)=0.1% • +500 μL 1M HEPES (Cellgro #25-060-Cl)=5 mM • +75 μL RO-20 (Sigma B8279; 20 mM stock in DMSO stored in aliquots at −20° C.)=15 μM • (made fresh daily) B84 (N-[4-(methylsulfonyl)phenyl]-5-nitro-6-[4-(phenylthio)-1-piperidinyl]-4-pyrimidinamine, see WO 2004/065380): A 10 mM stock solution of the test compound in DMSO was prepared, aliquoted and stored at −20° C. For Totals—Dilute 1:33.3 in DMSO then 1:50 in Stimulation Buffer=6 μM in 2% DMSO (=3 μM B84 and 1% DMSO final). For Dose Response Curve -3 μL stock+7 μL DMSO+490 μL Stim Buffer=60 μM in 2% DMSO (=30 μM B84 and 1% DMSO final). (made fresh daily). Cell Line Human clone 3: HEK 293 cells stable transfected with human-SP9215 (GPR119)/pcDNA3.1 and also stable for pCRELuc, Stratagene. Cells are maintained in DMEM containing 10% FBS (Invitrogen #02-4006Dk, lot #1272302, heat inactivated), 1×MEM, 1× Pen/Strep, 0.1 mg/mL Hygromycin B, and 0.5 mg/mL G418. Cells are split 1:8 twice per week. cAMP Kit: LANCE™ cAMP 384 kit, Perkin Elmer #AD0263 Compound Dilutions • 1. Add DMSO to vials containing compounds to provide a 1 mg/mL solution. • 2. Dilute compounds to 60 μM in Stimulation buffer. Make ½ log dilutions into stimulation buffer containing 2% DMSO using the epMotion robot. 10 point dose response curve 1 nM to 30 μM. • 3. Compounds are run in quadruplicate, 2 separate dilutions for each, sets 1 and 1a. Assay Procedure • 1. The afternoon before the assay, replace the media in the flask of Human clone 3 cells with Optimem. (Gibco # 11058-021) NOTE: cells should be in culture 6-8 days. • 2. Next morning, pipet the cells gently off the flask using HBSS (at room temperature). • 3. Pellet the cells (1300 rpm, 7 minutes, room temperature) and resuspend in Stimulation Buffer at 2.5×10e6/mL (=5-8,000 cell/6 μL). Add 1:100 dilution of Alexa Fluor 647-anti cAMP antibody (provided in the kit) directly to the cell suspension. • 4. Into white 384-well plates (Matrix) add 6 μL of 2×B84, cmpds or stim buffer for nsb. They all contain 2% DMSO (=1% DMSO final). • Add 6 μL of the cell suspension to the wells. Incubate 30 minutes at room temperature. • For the std curve add 6 μL cAMP std solution diluted in Stim Buffer+2% DMSO according to kit directions (1000-3 nM). Add 6 μL of 1:100 anti-cAMP dilution in Stim Buffer to std wells. • Make Detection Mix according to kit instructions and incubate 15 minutes at room temperature. • Add 12 μL Detection Mix to all the wells.

[4] = target: T3, rat VR1 (Rattus norvegicus, UniProt O35433); test: TRPV1 screening assay (FLIPR), rat VR1 % activation at single concentration
T3 construct: expressed in transfected cells; host or cells: HEK293-TetOFF
Text: as §1, §2
For assay: • a) Dilute stock by adding 0.8 μL into 1 mL of MeOH (final=80 uM). • b) Add 50 μL of diluted stock to 20 mL of FLIPR buffer (final=0.2 uM) • c) Agonist solution is added 150 μL/well to 96-well plate. • d) Final agonist concentration on cells will be 50 nM. (˜EC80) 6) Compound Plate preparation: • a) Compound plate is filled with 150 μL/well of FLIPR buffer • b) 3 μL of compound mixtures (1 mg/mL) is added to each well (represents a 3× solution and final DMSO=0.67%) Assay Procedure: • 1) Media is removed from cells grown in 96-well dishes. • 2) 100 μL of Fluo-4 containing FLIPR buffer in pipetted into each well. • 3) Plates are incubated for 30-60 minutes at 37° C. in 5% CO2 incubator. • 4) Plates are then washed three times with 100 μL of FLIPR buffer. • 5) 100 μL of FLIPR buffer is left in each well and plate is incubated at 37° C. for at least 20 minutes. • 6) Signal of dye-labeled plate is initially determined using laser at 0.300 W with an exposure time of 0.4 seconds. Laser is adjusted upwards for an average signal≧10,000/well and less than 10% variability. 7) Compound addition conditions are as follows: • FLIPR setup (dual sequence parameters): • Sequence 1: • First interval 1 sec/60 counts • Second interval 6 sec/50 counts • Fluid addition=50 μL • Pipettor height 110 μL • Dispense Speed=30 μL/sec • Sequence 2: • Second interval 1 sec/60 counts • Second interval 6 sec/40 counts • Fluid addition=50 μL • Pipettor height=140 μL • Dispense Speed=50 μL/sec Data Analysis: • 1) Data from both additions is reported as Max-Min for each well

T1 sequence (O35433 whole entry): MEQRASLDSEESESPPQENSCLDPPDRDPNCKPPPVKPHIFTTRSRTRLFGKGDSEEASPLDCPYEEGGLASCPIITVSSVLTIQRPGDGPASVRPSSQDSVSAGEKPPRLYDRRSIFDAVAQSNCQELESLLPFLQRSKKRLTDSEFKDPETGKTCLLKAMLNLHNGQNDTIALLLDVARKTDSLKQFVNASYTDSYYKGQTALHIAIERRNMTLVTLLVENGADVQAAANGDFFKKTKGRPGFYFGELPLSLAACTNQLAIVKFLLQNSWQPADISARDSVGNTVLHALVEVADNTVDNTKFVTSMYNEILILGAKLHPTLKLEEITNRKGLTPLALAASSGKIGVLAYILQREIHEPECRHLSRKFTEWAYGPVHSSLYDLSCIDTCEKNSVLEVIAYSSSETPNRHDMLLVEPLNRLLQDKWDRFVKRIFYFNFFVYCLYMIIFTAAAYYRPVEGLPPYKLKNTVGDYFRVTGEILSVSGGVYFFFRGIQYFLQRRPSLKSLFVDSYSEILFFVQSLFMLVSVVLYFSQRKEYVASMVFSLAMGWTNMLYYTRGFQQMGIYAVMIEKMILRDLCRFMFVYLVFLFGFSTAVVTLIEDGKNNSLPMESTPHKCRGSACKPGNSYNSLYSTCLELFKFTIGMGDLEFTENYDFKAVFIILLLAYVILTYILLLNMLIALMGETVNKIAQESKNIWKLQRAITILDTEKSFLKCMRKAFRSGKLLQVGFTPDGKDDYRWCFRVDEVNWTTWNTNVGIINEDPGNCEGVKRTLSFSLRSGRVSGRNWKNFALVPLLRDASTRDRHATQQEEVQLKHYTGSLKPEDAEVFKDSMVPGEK
T3 sequence (O35433 whole entry): as above

SMILES	IC50 [1]	IC50 [2]	IC50 [3]	rat VR1 % activation @ 3.3 ug/ml compound [4]
CCC(C)c1ccc(NC(=O)N2CCC3(CC2)C(=O)N(c2ccccc2)C3c2ccccc2)cc1 (stereo not shown)	98 nM	81 nM	–	–
CC(C)OC(=O)N1CCC2(CC1)C(=O)N(C(c1ccccc1)c1ccccc1)C2c1ccccc1 (stereo not shown)	–	–	2000 nM	–
CC(C)c1ccc(NC(=O)N2CCC3(CC2)CN(c2ccccc2)C3=O)cc1	504 nM	5 nM	–	–
N#Cc1cccc(N2C(=O)C3(CCN(C(=O)Nc4cccc(C(F)(F)F)c4)CC3)C2c2ccccn2)c1 (stereo not shown) [drawing 663]	–	–	–	61%
O=C(Nc1ccc(C(F)(F)F)cn1)N1CCC2(CC1)C(=O)N(c1ccccc1)C2c1ccccc1 (stereo not shown)	315 nM	205 nM	–	–
O=C(Nc1ccc(C(F)(F)F)cc1)N1CCC2(CC1)C(=O)N(c1ccccn1)C2c1ccccc1 (single isomer, unassigned)	7 nM	7 nM	–	–
C[C@H](NC(=O)N1CCC2(CC1)C(=O)N(c1ccc(F)cc1)C2c1ccc(F)cc1)c1ccccc1 (stereo partly shown)	–	–	4680 nM	–
CC(C)(C)C1CCC(NC(=O)N2CCC3(CC2)C(=O)N(c2ccccc2)C3c2ccccc2)CC1 (single isomer, unassigned)	48 nM	31 nM	–	–
COc1cc(C(=O)N2CCC3(CC2)C(=O)N(c2cccc(C(F)(F)F)c2)C3c2ccc(Cl)cc2)cc(OC)c1OC (stereo not shown)	–	–	4400 nM	–
O=C(c1ccc2c(c1)OCCCO2)N1CCC2(CC1)C(=O)N(c1ccc([N+](=O)O)cc1)C2c1ccc(Cl)cc1 (stereo not shown)	–	–	4180 nM	–
COc1cccc(N2C(=O)C3(CCN(C(=O)c4cc(OC)c(OC)c(OC)c4)CC3)C2c2ccc(Cl)cc2)c1 (stereo not shown)	–	–	3800 nM	–
O=C(c1ccc2c(c1)OCCCO2)N1CCC2(CC1)C(=O)N(c1ccc(C(F)(F)F)cc1)C2c1ccc(Cl)cc1 (stereo not shown)	–	–	4460 nM	–
N#Cc1cc(F)cc(NC(=O)N2CCC3(CC2)C(=O)N(c2ccc(F)c(Cl)c2)C3c2ccccn2)c1 (stereo not shown) [drawing 662]	–	–	–	67%
COC(=O)c1ccc(N2C(=O)C3(CCN(C(=O)c4cc(OC)c(OC)c(OC)c4)CC3)C2c2ccc(Cl)cc2)cc1 (stereo not shown)	–	–	2720 nM	–
O=C(Nc1cccc(C(F)(F)F)c1)N1CCC2(CC1)C(=O)N(c1cncc(Cl)c1)C2c1ccccn1 (stereo not shown) [drawing 661]	–	–	–	61%
O=C(Nc1ccc(C(F)(F)F)cc1)N1CCC2(CC1)C(=O)N(c1ccccn1)C2c1ccccc1 (stereo not shown)	20 nM	16 nM	–	–
COc1cc(C(=O)N2CCC3(CC2)C(=O)N(c2ccc(F)cc2)C3c2ccc(Cl)cc2)cc(OC)c1OC (stereo not shown)	–	–	4360 nM	–
COC(=O)c1ccc(N2C(=O)C3(CCN(C(=O)c4ccc5c(c4)OCCCO5)CC3)C2c2ccc(Cl)cc2)cc1 (stereo not shown)	–	–	1000 nM	–
N#Cc1ccc(N2C(=O)C3(CCN(C(=O)c4ccc5c(c4)OCCCO5)CC3)C2c2ccc(Cl)cc2)cc1 (stereo not shown)	–	–	2280 nM	–
CC(C)(C)C1CCC(NC(=O)N2CCC3(CC2)CN(c2ccccc2)C3=O)CC1 (single isomer, unassigned)	84 nM	123 nM	–	–
CC(C)(C)c1ccc(NC(=O)N2CCC3(CC2)C(=O)N(c2ccccc2)C3c2ccccc2)cc1 (single isomer, unassigned)	9 nM	12 nM	–	–
CC(C)(C)c1ccc(NC(=O)N2CCC3(CC2)CN(c2ccccc2)C3=O)cc1	80 nM	59 nM	–	–
